Assay results as given in ChEMBL document CHEMBL4602617, “Discovery and optimization of heteroaryl piperazines as potent and selective PI3Kδ inhibitors” (Bioorg Med Chem Lett, 2020).

Legend:
[1] = Clearance in human liver microsomes; assay type: ADME, Microsome; conditions: read-out: CLH
[2] = Half life in rat at 0.5 mg/kg, iv 1 mg/kg, po; assay type: ADME, organism-based; conditions: in vivo
[3] = Half life in dog at 0.5 mg/kg, iv 1 mg/kg, po; assay type: ADME, organism-based, Canis lupus familiaris; conditions: in vivo
[4] = target: Tyrosine-protein kinase ABL1 (Homo sapiens, UniProt P00519); assay: Inhibition of recombinant full length human His-tagged ABL1 cytoplasmic domain expressed in baculovirus expression system using tyrosine-2 peptide as substrate incubated for 60 mins in presence of ATP by Z'-LYTE assay
[5] = target: Glycogen synthase kinase-3 beta (Homo sapiens, UniProt P49841); assay: Inhibition of recombinant full length human His-tagged GSK3beta expressed in baculovirus expression system using serine/threonine-9 peptide as substrate incubated for 60 mins in presence of ATP by Z'-LYTE assay
[6] = organism: Rattus norvegicus; assay: Displacement of [3H]GABA from Wistar rat brain GABA at 10 uM after 20 mins by radiometric scintillation analysis relative to control
[7] = target: 5-hydroxytryptamine receptor 1B (Rattus norvegicus) (UniProt P28564); assay: Displacement of [125I]cyanopindolol from 5HT1B receptor in Wistar rat cerebral cortical membranes at 10 uM measured after 90 mins by radiometric scintillation analysis relative to control
[8] = target: Prostaglandin F2-alpha receptor (Homo sapiens) (UniProt P43088); assay: Displacement of [3H]PGF2alpha from full length human recombinant prostanoid FP receptor expressed in HEK293 cells at 10 uM measured after 60 mins by radiometric scintillation analysis relative to control; assay type: cell-based
[9] = target: Glutamate receptor ionotropic, AMPA (Rattus norvegicus) (UniProt P19491+P19492+P19493+P19490); assay: Displacement of [3H]AMPA from glutamate AMPA receptor in Wistar rat cerebral cortical membranes at 10 uM incubated for 90 mins by radiometric scintillation analysis relative to control
[10] = target: Cannabinoid receptor 2 (Homo sapiens) (UniProt P34972); assay: Displacement of [3H]WIN55212-2 from recombinant full length human recombinant CB2 receptor expressed in CHOK1 cells at 10 uM measured after 90 mins by radiometric scintillation analysis relative to control; assay type: cell-based; conditions: CHO-K1
[11] = target: Alpha-2C adrenergic receptor (Homo sapiens) (UniProt P18825); assay: Displacement of [3H]rauwolscine from full-length recombinant human alpha2C receptor expressed in CHOK1 cells at 10 uM measured after 60 mins by scintillation counting method relative to control; assay type: cell-based; conditions: CHO-K1
[12] = target: Caspase-9 (Homo sapiens) (UniProt P55211); assay: Inhibition of recombinant human caspase 9 expressed in Escherichia coli at 10 uM using Ac-LEHD-AFC as substrate after 60 mins by spectrophotometric analysis relative to control
[13] = target: Caspase-8 (Homo sapiens) (UniProt Q14790); assay: Inhibition of recombinant human caspase 8 (217 to end residues) expressed in Escherichia coli at 10 uM using Ac-IETD-AMC as substrate after 60 mins by spectrophotometric analysis relative to control
[14] = target: MAO-B (Homo sapiens, UniProt P27338); assay: Inhibition of recombinant full-length human MAO-B expressed in insect cells at 10 uM using kynuramine as substrate after 60 mins by spectrophotometric analysis relative to control; conditions: probe kynuramine
[15] = target: Serine/threonine-protein kinase Chk2 (Homo sapiens, UniProt O96017); assay: Inhibition of recombinant human full-length His-tagged CHEK2 expressed in baculovirus expression system using FRET-labeled Ser/Thr 07 peptide as substrate measured after 1 hr in presence of ATP by Z'-lyte assay
[16] = target: DNA-dependent protein kinase catalytic subunit (Homo sapiens, UniProt P78527); assay: Inhibition of recombinant human DNA-PK expressed in baculovirus expression system using serine/threonine-26 peptide as substrate incubated for 60 mins in presence of ATP by Z'-LYTE assay
[17] = target: Ephrin type-A receptor 3 (Homo sapiens, UniProt P29320); assay: Inhibition of tracer 236 binding to recombinant human His-tagged EPHA3 (569 to 976 residues) expressed in baculovirus expression system measured after 60 mins in presence of ATP by Lanthascreen assay
[18] = target: Fibroblast growth factor receptor 4 (Homo sapiens, UniProt P22455); assay: Inhibition of recombinant human His-tagged FGFR4 catalytic domain ([…]) expressed in baculovirus expression system using tyrosine-4 peptide as substrate incubated for 60 mins in presence of ATP by Z'-LYTE assay
[19] = target: Receptor-type tyrosine-protein kinase FLT3 (Homo sapiens, UniProt P36888, D835Y); assay: Inhibition of recombinant human His-tagged FLT3 D835Y mutant cytoplasmic domain expressed in baculovirus expression system after 1 using tyrosine 2 as substrate after 1 hr in presence of ATP by ZYLTE assay
[20] = target: Inhibitor of nuclear factor kappa-B kinase subunit epsilon (Homo sapiens, UniProt Q14164); assay: Inhibition of recombinant human full-length GST-tagged IKBKE expressed in baculovirus expression system using Ser/Thr 11 peptide as substrate measured after 1 hr in presence of ATP by Z'-lyte assay
[21] = target: Dual specificity mitogen-activated protein kinase kinase 1 (Homo sapiens, UniProt Q02750); assay: Inhibition of recombinant full length human His-tagged MEK1 expressed in baculovirus expression system using serine/threonine-3 peptide as substrate incubated for 60 mins in presence of ATP by Z'-LYTE assay
[22] = target: Mitogen-activated protein kinase 3 (Homo sapiens, UniProt P27361); assay: Inhibition of recombinant full length human GST-tagged ERK1 expressed in Escherichia coli using fluorophore-labeled serine/threonine-3 peptide as substrate incubated for 60 mins in presence of ATP by Z'-LYTE assay
[23] = target: Megakaryocyte-associated tyrosine-protein kinase (Homo sapiens, UniProt P42679); assay: Inhibition of recombinant full length human His-tagged MATK expressed in Escherichia coli using tyr-01 peptide as substrate incubated for 60 mins in presence of ATP by Z'-LYTE assay
[24] = target: Platelet-derived growth factor receptor alpha (Homo sapiens, UniProt P16234, V561D); assay: Inhibition of recombinant human GST-tagged PDGFRalpha V561D mutant cytoplasmic domain expressed in baculovirus expression system using tyrosine-4 peptide as substrate incubated for 60 mins in presence of ATP by Z'-LYTE assay
[25] = target: Protein kinase C zeta type (Homo sapiens, UniProt Q05513); assay: Inhibition of recombinant full length human PKCzeta expressed in baculovirus expression system using serine/threonine-7 peptide as substrate incubated for 60 mins in presence of ATP by Z'-LYTE assay
[26] = target: Tyrosine-protein kinase Srms (Homo sapiens, UniProt Q9H3Y6); assay: Inhibition of recombinant full length human GST-tagged SRM expressed in baculovirus expression system using tyrosine-1 peptide as substrate incubated for 60 mins in presence of ATP by Z'-LYTE assay
[27] = target: Tyrosine-protein kinase TXK (Homo sapiens, UniProt P42681); assay: Inhibition of recombinant human GST-tagged TXK catalytic domain (260 to 527 residues) expressed in baculovirus expression system using tyrosine-6 peptide as substrate incubated for 60 mins in presence of ATP by Z'-LYTE assay

Chain of DNA-dependent protein kinase catalytic subunit (P78527 whole entry, the tested form may be a part): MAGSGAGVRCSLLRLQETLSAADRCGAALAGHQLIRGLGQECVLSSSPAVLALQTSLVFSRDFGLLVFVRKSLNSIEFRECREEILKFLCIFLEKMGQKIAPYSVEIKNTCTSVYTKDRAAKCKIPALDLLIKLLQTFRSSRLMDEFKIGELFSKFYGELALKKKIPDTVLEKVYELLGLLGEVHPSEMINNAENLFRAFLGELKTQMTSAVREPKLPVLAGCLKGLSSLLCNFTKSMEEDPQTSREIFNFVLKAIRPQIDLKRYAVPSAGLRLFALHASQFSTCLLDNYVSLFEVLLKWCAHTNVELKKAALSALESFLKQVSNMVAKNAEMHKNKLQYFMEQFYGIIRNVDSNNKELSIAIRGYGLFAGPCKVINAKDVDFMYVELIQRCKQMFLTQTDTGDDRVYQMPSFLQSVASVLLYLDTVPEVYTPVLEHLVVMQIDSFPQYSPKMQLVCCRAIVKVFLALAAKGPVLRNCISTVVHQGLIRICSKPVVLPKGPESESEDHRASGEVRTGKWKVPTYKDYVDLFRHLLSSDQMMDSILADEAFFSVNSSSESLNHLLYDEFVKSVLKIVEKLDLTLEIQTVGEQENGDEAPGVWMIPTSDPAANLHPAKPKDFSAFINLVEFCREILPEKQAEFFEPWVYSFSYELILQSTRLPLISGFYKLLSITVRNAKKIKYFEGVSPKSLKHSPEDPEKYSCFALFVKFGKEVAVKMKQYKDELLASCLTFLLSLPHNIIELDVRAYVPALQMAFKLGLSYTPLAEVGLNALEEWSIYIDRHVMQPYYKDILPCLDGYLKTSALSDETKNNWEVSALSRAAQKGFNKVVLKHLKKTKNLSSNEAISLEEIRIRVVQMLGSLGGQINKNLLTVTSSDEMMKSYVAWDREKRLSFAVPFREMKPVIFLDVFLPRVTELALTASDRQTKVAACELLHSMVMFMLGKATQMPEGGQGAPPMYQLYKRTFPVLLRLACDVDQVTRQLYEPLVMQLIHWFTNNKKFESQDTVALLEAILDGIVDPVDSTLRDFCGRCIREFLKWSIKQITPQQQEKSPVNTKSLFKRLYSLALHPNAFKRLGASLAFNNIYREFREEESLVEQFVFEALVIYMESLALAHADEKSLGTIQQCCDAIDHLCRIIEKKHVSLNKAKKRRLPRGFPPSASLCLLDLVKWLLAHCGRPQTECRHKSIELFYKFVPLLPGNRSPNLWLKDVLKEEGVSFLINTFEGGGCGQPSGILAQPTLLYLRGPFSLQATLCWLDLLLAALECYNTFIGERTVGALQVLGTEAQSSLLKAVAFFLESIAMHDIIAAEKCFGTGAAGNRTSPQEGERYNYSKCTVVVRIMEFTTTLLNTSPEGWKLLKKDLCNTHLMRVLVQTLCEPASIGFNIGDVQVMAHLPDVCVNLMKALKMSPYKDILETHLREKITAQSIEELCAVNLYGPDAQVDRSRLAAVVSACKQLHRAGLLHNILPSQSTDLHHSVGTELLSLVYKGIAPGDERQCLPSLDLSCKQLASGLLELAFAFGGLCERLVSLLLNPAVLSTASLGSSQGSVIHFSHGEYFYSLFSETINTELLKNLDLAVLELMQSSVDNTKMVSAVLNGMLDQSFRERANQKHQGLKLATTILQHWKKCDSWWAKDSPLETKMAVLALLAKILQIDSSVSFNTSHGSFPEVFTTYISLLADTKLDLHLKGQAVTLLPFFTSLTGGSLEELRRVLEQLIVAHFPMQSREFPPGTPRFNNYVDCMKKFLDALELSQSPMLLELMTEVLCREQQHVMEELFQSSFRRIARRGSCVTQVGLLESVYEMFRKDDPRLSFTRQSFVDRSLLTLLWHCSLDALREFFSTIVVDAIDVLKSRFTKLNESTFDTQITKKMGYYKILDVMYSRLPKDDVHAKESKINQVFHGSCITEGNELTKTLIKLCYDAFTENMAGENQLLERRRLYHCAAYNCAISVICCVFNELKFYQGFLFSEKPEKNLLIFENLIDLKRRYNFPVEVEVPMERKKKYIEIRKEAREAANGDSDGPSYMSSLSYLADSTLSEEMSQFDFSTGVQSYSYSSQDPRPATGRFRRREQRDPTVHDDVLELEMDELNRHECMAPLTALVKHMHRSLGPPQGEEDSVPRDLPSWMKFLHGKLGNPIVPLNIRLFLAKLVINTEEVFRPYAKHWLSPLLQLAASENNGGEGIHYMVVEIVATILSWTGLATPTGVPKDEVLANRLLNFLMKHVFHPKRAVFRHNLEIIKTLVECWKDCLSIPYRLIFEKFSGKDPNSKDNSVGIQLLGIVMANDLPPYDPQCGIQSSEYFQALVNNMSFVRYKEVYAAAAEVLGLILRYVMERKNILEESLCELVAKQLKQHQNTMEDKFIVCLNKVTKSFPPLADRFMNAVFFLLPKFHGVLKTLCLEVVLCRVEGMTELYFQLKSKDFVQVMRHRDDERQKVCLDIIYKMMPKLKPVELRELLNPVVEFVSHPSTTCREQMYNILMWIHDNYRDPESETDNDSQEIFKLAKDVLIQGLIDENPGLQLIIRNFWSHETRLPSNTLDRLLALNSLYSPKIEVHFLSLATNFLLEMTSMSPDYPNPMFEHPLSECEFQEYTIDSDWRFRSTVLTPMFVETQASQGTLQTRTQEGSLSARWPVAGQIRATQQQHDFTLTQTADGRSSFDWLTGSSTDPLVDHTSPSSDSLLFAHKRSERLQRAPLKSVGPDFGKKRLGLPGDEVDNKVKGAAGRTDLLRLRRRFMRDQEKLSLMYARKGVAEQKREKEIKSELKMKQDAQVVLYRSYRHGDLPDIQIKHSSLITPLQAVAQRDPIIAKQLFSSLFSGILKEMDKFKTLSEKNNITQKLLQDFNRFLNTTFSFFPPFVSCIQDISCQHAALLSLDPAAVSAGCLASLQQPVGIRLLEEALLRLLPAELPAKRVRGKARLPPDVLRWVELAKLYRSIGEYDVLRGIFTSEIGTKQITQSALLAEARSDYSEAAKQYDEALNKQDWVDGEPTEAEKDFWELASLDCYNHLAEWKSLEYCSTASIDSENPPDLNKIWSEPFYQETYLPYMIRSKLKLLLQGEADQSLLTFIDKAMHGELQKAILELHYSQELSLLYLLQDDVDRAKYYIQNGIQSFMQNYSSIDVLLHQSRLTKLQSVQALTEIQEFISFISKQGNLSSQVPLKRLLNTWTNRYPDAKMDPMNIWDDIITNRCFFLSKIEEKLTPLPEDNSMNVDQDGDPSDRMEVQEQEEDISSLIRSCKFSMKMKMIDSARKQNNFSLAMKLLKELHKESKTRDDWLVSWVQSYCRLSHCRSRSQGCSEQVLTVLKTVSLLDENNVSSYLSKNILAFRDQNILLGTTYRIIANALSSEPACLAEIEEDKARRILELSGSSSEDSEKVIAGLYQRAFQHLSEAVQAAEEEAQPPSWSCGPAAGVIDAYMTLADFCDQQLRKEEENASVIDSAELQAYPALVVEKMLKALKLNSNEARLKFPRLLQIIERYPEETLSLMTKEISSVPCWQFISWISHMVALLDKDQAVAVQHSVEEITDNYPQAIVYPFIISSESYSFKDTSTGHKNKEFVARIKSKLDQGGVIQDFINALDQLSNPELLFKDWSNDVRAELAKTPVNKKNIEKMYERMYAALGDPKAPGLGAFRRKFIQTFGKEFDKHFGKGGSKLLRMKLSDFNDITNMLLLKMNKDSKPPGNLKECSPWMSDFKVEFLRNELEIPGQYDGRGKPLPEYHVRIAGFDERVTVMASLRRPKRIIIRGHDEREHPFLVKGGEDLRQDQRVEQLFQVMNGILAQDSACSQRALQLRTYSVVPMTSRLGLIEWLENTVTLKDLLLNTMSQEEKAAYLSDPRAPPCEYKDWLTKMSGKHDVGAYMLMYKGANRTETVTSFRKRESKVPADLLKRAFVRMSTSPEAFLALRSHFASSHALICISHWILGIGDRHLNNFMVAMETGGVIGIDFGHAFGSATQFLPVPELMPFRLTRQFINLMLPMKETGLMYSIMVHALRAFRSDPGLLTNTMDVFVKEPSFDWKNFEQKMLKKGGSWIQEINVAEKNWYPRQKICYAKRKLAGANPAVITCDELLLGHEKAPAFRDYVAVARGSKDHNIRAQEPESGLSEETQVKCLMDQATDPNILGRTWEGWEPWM
Chain of Ephrin type-A receptor 3 (P29320 whole entry, the tested form may be a part): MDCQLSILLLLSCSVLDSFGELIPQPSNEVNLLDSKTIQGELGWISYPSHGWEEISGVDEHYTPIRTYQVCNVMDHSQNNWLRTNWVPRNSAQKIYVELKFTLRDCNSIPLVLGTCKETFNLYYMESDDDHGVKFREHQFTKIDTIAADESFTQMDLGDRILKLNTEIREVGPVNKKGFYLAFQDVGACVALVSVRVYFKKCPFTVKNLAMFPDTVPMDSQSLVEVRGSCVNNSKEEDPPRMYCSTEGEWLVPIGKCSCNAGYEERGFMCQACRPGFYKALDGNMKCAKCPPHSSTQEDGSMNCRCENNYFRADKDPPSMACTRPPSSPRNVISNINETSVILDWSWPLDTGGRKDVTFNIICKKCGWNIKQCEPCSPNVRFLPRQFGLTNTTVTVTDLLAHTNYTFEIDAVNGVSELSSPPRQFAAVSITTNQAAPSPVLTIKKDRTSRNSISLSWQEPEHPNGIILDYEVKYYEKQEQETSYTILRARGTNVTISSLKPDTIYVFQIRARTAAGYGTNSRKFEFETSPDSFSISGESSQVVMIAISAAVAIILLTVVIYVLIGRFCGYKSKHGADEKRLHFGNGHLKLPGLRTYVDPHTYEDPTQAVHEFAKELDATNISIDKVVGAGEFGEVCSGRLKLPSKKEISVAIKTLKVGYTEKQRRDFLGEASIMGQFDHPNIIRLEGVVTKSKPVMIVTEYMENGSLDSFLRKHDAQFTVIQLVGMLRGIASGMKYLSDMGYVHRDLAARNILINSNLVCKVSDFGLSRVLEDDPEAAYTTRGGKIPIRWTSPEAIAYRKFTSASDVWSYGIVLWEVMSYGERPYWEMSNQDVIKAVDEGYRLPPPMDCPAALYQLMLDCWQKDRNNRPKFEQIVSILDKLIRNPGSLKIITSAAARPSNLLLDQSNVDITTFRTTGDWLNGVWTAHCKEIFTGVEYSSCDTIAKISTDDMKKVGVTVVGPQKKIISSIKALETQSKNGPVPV

SMILES: C[C@@H]1C[C@H]1C(=O)N1CCN(c2cnc(C#N)c(-c3cnn(C)c3)n2)C[C@H]1C
- CLint scaled [1]: < 16 mL/min/kg
- half-life [2]: 0.6 h
- half-life [3]: 2.9 h
- IC50 [4]: > 100 µM
- IC50 [5]: 28.1 µM
- inhibition [6]: 18%
- inhibition [7]: -5%
- inhibition [8]: 9%
- inhibition [9]: 7%
- inhibition [10]: 2%
- inhibition [11]: 5%
- inhibition [12]: 2%
- inhibition [13]: 2%
- inhibition at 1 h, 10 µM [14]: 11%
- IC50 [15]: > 100 µM
- IC50 [16]: > 100 µM
- IC50 [17]: > 100 µM
- IC50 [18]: > 100 µM
- IC50 [19]: > 100 µM
- IC50 [20]: > 100 µM
- IC50 [21]: > 100 µM
- IC50 [22]: > 100 µM
- IC50 [23]: > 100 µM
- IC50 [24]: > 100 µM
- IC50 [25]: > 100 µM
- IC50 [26]: > 100 µM
- IC50 [27]: > 100 µM
